Consider 53 compounds from PMC12040169 (PLOS Biology, 2025).

A short description of the data set: in vitro. As to conditions: human, hela cells, % viability.

Usually viability stands for a read-out of living cells in per cent, often relative to untreated cells. Consider `Cc1cccc(-n2ncc3c2ncn2c(COc4ccccc4C)nnc32)c1` [CBK265567], for which the viability at 28.5 h, 10 µM stood at 86.2%.
As to `CC(C)(C)NS(=O)(=O)c1cccc2nonc12` [CBK265569], the viability at 28.5 h, 10 µM worked out at 115%.
Take `O=C(O)CN1C(=O)/C(=C2/C(=O)N(Cc3ccccc3Cl)c3ccccc32)SC1=S` [CBK265570]: the viability at 28.5 h, 10 µM came to 95.6%.
Turning to `CC1CCN(S(=O)(=O)c2ccc(NC(=O)CCN3C(=O)c4ccccc4C3=O)cc2)CC1` [CBK265572], the viability at 28.5 h, 10 µM came to 98.8%.
As for `O=C1NC(=S)N(Cc2ccco2)C(=O)/C1=C\c1cn(CCOc2ccc(F)cc2)c2ccccc12` [CBK265573], the viability at 28.5 h, 10 µM (bulk resorufin, single well) stood at 80.9%.
`CCOC(=O)c1sc(NCCOc2cccc(C)c2)nc1C` [CBK265574]: the viability at 28.5 h, 10 µM is 85.2%.
In the case of `CCOC(=O)CNC(=O)C1Cc2ccccc2CN1S(=O)(=O)c1cccs1` (centres unmarked) [CBK265575], the viability at 28.5 h, 10 µM turned out to be 103%.
For `O=C(CN1C(=O)c2ccc([N+](=O)[O-])cc2C1=O)Nc1cccc2c1C(=O)N(c1ccccc1)C2=O` [CBK265576], the viability at 28.5 h, 10 µM was 84.7%.
On to `CCOc1ccc(-n2c(N)c(C(=O)NCc3ccco3)sc2=S)cc1` [CBK265578], for which the viability at 28.5 h, 10 µM was 96.3%.
For `CC(Sc1ccccn1)C(=O)Nc1ccc(S(N)(=O)=O)cc1` (centres unmarked) [CBK265579], the viability at 28.5 h, 10 µM was found to be 97.1%.
`C/N=C1/SC(CC(=O)Nc2cccc(C(=O)O)c2)C(=O)N1C` (centres unmarked) [CBK265581]: the viability at 28.5 h, 10 µM was 99.8%.
Same read-out and setting: the value for `O=C(O)c1cccnc1SC1CC(=O)N(c2ccc(F)cc2)C1=O` (centres unmarked) [CBK265582] was 110%.
In the case of `NS(=O)(=O)c1ccc(N/C=C2\C(=O)NC(=O)N(Cc3ccccc3Cl)C2=O)cc1` [CBK265586], the viability at 28.5 h, 10 µM (bulk resorufin, single well) is 92.3%.
Consider `COc1c(C)cccc1C(=O)NC(=S)Nc1sc2c(c1C(N)=O)CCC2` [CBK265587], for which the viability at 28.5 h, 10 µM is 84.4%.
Consider `O=C(OCC#CCSc1nnc(-c2ccccc2)o1)c1ccc([N+](=O)[O-])cc1` [CBK265588], for which the viability at 28.5 h, 10 µM was 107%.
Turning to `Cc1ccc(S(=O)(=O)c2cc3c(=O)n4ccccc4nc3n(CCCN3CCOCC3)c2=N)cc1` [CBK265590], the viability at 28.5 h, 10 µM turned out to be 101%.
As to `O=C(CSc1ncn(-c2ccccc2)n1)Nc1ccccc1Cl` [CBK265593], the viability at 28.5 h, 10 µM turned out to be 104%.
`COc1cc(/C=C2\C=C(c3ccc(-c4ccccc4)cc3)OC2=O)ccc1O` [CBK265594]: the viability at 28.5 h, 10 µM worked out at 88.5%.
For the compound `Cc1cc2c(cc1C)NC(CC(=O)Nc1ccc(N(C)C)cc1)C(=O)N2` (centres unmarked) [CBK265595], the viability at 28.5 h, 10 µM came out at 85.8%.
The same measure, in the same setting: the figure for `COc1cc(/C=C2/SC(=S)N(CC(=O)O)C2=O)cc(Br)c1OCc1ccccn1` [CBK265598] is 115%.
For the compound `Cc1cc(C)nc(NC(=O)C(C)Oc2ccc(Cl)cc2Cl)n1` (centres unmarked) [CBK265600], the viability at 28.5 h, 10 µM stood at 90.4%.
The same measure, in the same setting: the figure for `O=C1N/C(=C/c2cccs2)C(=O)N1Cc1ccccc1F` [CBK265601] is 109%; for `CC(C(=O)Nc1sc2c(c1C(=O)NCc1ccco1)CCCC2)N1C(=O)c2ccccc2C1=O` (centres unmarked) [CBK265603] it is 86.6%; for `CCOc1ccccc1NC(=O)CCCN1C(=O)c2ccccc2C1=O` [CBK265608] it is 107%.
Regarding `COc1ccc(-c2nnc(SCC(=O)Nc3ccccc3[N+](=O)[O-])n2C)cc1` [CBK265609], the viability at 28.5 h, 10 µM amounted to 103%.
With `Cc1ccc(-c2csc3nc(SCC(=O)NCC4CCCO4)n(-c4ccccc4)c(=O)c23)cc1` (centres unmarked) [CBK265610], the viability at 28.5 h, 10 µM turned out to be 82.6%.
Still for that read-out and setting: the value for `O=C(O)C1CC=C(Cl)CC1C(=O)Nc1ccc(Cl)cc1[N+](=O)[O-]` (centres unmarked) [CBK265612] was 101%.
Take `O=C(/C=C/c1ccco1)Nc1sc2c(c1C(=O)NCc1ccco1)CCC2` [CBK265616]: the viability at 28.5 h, 10 µM is 104%.
`O=C(Oc1ccc(N(C(=O)c2ccncc2)S(=O)(=O)c2cccs2)cc1)c1ccncc1` [CBK265619]: the viability at 28.5 h, 10 µM came to 98.7%.
For the compound `Cc1cccc(C)c1NC(=O)CSc1nnc(-c2cccnc2)n1Cc1ccccc1` [CBK265620], the viability at 28.5 h, 10 µM was 114%.
As to `O=C(CSCCO)Nc1cccc2ccccc12` [CBK265623], the viability at 28.5 h, 10 µM worked out at 85.4%.
Turning to `CCOC(=O)C1=C(C)NC(=S)NC1c1ccc(O)c(OCC)c1[N+](=O)[O-]` (centres unmarked) [CBK265624], the viability at 28.5 h, 10 µM turned out to be 102%.
Still for that read-out and setting: the value for `COc1cccc(/C=C2/NC(=O)N(c3cccc(Cl)c3)C2=O)c1OCc1cccc(C(=O)O)c1` [CBK265626] was 109%.
Regarding `C=CCn1c2ccccc2c2nnc(SCc3ccc([N+](=O)[O-])cc3)nc21` [CBK265630], the viability at 28.5 h, 10 µM turned out to be 92.5%.
On to `COc1cc2c(cc1/C=C1/S/C(=N\c3ccccc3)N(CCCN3CCOCC3)C1=O)OCO2` [CBK265631], for which the viability at 28.5 h, 10 µM was 78.7%.
Consider `CCOC(=O)COc1ccc(/C=C2/SC(=S)N(c3cccc(C(=O)O)c3)C2=O)cc1` [CBK265632], for which the viability at 28.5 h, 10 µM came out at 107%.
`NC(=O)c1ccccc1NC(=S)NC(=O)c1cc2ccccc2o1` [CBK265633]: the viability at 28.5 h, 10 µM was 81.3%.
As for `COc1ccc(-c2cc(=O)oc3cc(OCC(=O)c4cc5ccccc5o4)ccc23)cc1` [CBK265634], the viability at 28.5 h, 10 µM worked out at 97.7%.
`Cc1ccc(S(=O)(=O)N(C(=O)c2ccncc2)c2ccc(OC(=O)c3ccncc3)cc2)c(C)c1` [CBK265635]: the viability at 28.5 h, 10 µM was found to be 104%.
On to `Cc1ccc(S(=O)(=O)c2cc3c(=O)n4ccccc4nc3n(CCN3CCOCC3)c2=N)cc1` [CBK265637], for which the viability at 28.5 h, 10 µM was 80.3%.
Consider `Cc1cc(Cl)ccc1NC(=O)COC(=O)c1ccccc1I` [CBK265638], for which the viability at 28.5 h, 10 µM came out at 89.6%.
For the compound `O=C(COc1ccc2c3c(c(=O)oc2c1)CCC3)Nc1ccc(S(=O)(=O)N2CCOCC2)cc1` [CBK265640], the viability at 28.5 h, 10 µM came to 82.4%.
For `Cc1ccc(S(=O)(=O)N(C)c2c(C)ccc(S(=O)(=O)N3CCN(C)CC3)c2C)cc1` [CBK265642], the viability at 28.5 h, 10 µM was 96.1%.
With `COc1ccc(C(=O)NCC(O)CN2CCOCC2)cc1[N+](=O)[O-]` (centres unmarked) [CBK265643], the viability at 28.5 h, 10 µM stood at 105%.
For the compound `COc1cc(C2C3=C(CC(C)(C)CC3=O)Nc3ncnn32)cc(OC)c1OC` (centres unmarked) [CBK265646], the viability at 28.5 h, 10 µM came out at 86.2%.
In the case of `CCOc1ccc(-c2nn(-c3ccccc3)cc2/C=C2\SC(=S)N(CC(=O)O)C2=O)cc1F` [CBK265647], the viability at 28.5 h, 10 µM was determined as 105%.
On to `N=C1NC(=O)C(CC(=O)Nc2ccc(SC(F)F)cc2)S1` (centres unmarked) [CBK265648], for which the viability at 28.5 h, 10 µM was determined as 91.1%.
For the compound `Cc1ccc(/C=C(\NC(=O)c2ccccc2)C(=O)N2CCCC2C(=O)O)cc1` (centres unmarked) [CBK265649], the viability at 28.5 h, 10 µM turned out to be 87.6%.
The same measure, in the same setting: the figure for `O=C(OCC=C=CSc1ccc([N+](=O)[O-])cc1)c1ccc(F)cc1` [CBK265650] is 117%.
On to `CCn1c(COc2cccc3cccnc23)nnc1SCC(=O)c1ccc(F)cc1` [CBK265656], for which the viability at 28.5 h, 10 µM was determined as 86.8%.
In the case of `O=C(O)CCCn1c(-c2cccc([N+](=O)[O-])c2)nc(=S)c2c1CCCC2` [CBK265657], the viability at 28.5 h, 10 µM came to 101%.
For the compound `NS(=O)(=O)c1ccc(NC(=O)CSc2ccc3ccccc3n2)cc1` [CBK265663], the viability at 28.5 h, 10 µM was 74.6%.
The same measure, in the same setting: the figure for `CCOC(=O)c1c(NC(=O)CSc2nnc3ccccn23)sc2c1CCC(C)C2` (centres unmarked) [CBK265668] is 89%.
